This test concerns Friend-Leukämie-Virus. The test can be described thus: In vivo test in mice infected with Friend leukaemia virus (retrovirus model; spleen weight). Particulars: for Wirkung im Vergleich zu Suramin: summary in words of the two experiments of the table. Also noted: species or system Maus. The text has this:
Da für die HIV-Infektion des Menschen kein geeignetes Infektionsmodell bei Labortieren existiert, muß bei der Prüfung von Chemotherapeutika auf Infektionen mit anderen Retroviren zurückgegriffen werden. Sowie die Hemmung der Virusreplikation in vivo aufgrund einer spezifischen Blockierung der RT (= Reverse Transkriptase)-Aktivität untersucht wird, erscheint die Wahl eines solchen Ersatzmodelles gerechtfertigt. Im vorliegenden Fall wurde die Infektion der Maus mit dem Friend-Leukämie-Virus gewählt.
Dazu wurden normale Labormäuse (NMRI = Naval Medical Research Institute) durch intravenöse Injektion mit Friend-Virus enthaltendem Mäuseserum infiziert. Bei den unbehandelten Kontrolltieren entwickelte sich als Symptom der Infektion innerhalb von zwei Wochen eine deutliche Vergrößerung von Milz und Leber. Die Behandlung erfolgte über 10 Tage, beginnend 48 Stunden nach der Infektion. Am 14. Versuchstag wurden die tiere durch Luxation der Halswirbel getötet und geöffnet. Die Milz wurde entnommen und gewogen. Als Meßparameter der therapeutischen Wirksamkeit wurde das Milzgewicht der behandelten Tiere mit dem der unbehandelten Infektionskontrolle in Relation gesetzt.
Während bei uninfizierten ausgewachsenen Labormäusen (20 - 24 g Körpergewicht) die Milz weniger als 1 % des Körpergewichtes wog, erreichte bei infizierten Tieren die Milz am Ende des Versuchs bis zu etwa 10 % des Körpergewichtes. […] Suramin ist die Verbindung der Formel: [drawing 14]

The values below come from EP0306845A2, “Medicinal preparation containing certain derivatives of 6-mercaptopurine, use of these derivatives of 6-mercaptopurine, process for the preparation of the medicinal preparation and some derivatives of 6-mercaptopurine and process for their preparation” (HOECHST AKTIENGESELLSCHAFT, priority 1987, dated 1989).

Turning to `Cc1ccc(C(=O)Nc2ccc(S(=O)(=O)O)c3cc(S(=O)(=O)O)cc(S(=O)(=O)O)c23)cc1NC(=O)c1cccc(NC(=O)Nc2cccc(C(=O)Nc3cc(C(=O)Nc4ccc(S(=O)(=O)O)c5cc(S(=O)(=O)O)cc(S(=O)(=O)O)c45)ccc3C)c2)c1` [Suramin, reference compound], the Milzwachstum result (infected mice, treatment with the comparison preparation, mostly statistically significant (P 0,05)) was “Verringerung des Milzwachstums”.

In the case of `OC[C@H]1O[C@@H](n2cnc3c(S)ncnc32)[C@H](O)[C@@H]1O` [(1), 6-Mercapto-purin-9-D-ribosid], the “Wirkung im Vergleich zu Suramin” value is “gegenüber dem Suramin Vorteile besitzen”. On the same count and under the same terms, in the case of “6-Mercapto-9-[(1-hydroxy-3-isopropoxy-2-propoxy)methyl]-purin [Beispiel 3]” it was “mit Suramin vergleichbar”.

On to “6-Mercapto-9-[1,3-bis-(isopropoxy)-propyl-2-oxymethyl]-purin [Beispiel 2]”, for which the “Wirkung im Vergleich zu Suramin” value is “gegenüber dem Suramin Vorteile besitzen”. For `Nc1nc(S)c2ncn([C@@H]3O[C@H](CO)[C@@H](O)[C@H]3O)c2n1` [(2), 2-Amino-6-mercaptopurin-9-D-ribosid], under “Versuch 1 (Virus-Verdünnung 1:5000), NMRI mice, 10 x 1,0 mg/Maus i.p., spleen weighed on day 14”, the “Relat Milzgewicht in % vom Körpergewicht” value is on record as 0,5 % vom Körpergewicht.
